# Experimental data published in patent US20250197372A1 (priority 2020, published 2025).
# What was measured:
# [1] = molecular target: recombinant human GAA (acid alpha-glucosidase) (Homo sapiens, UniProt P10253); assay: Acid alpha-glucosidase (GAA) assay (4-methylumbelliferyl-alpha-D-pyranoside substrate, fluorescence); format: biochemical
# Method in brief: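 IC50 from 4-PL curve fit of percent inhibition, based on fluorescence (365/440 nm) of released methylumbelliferone relative to uninhibited enzyme. Compound dilutions and human GAA incubated 60 min, 37 °C, before 20 min substrate reaction at 37 °C, quenched at pH 10.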
# [2] = molecular target: T1, recombinant human GBA (beta-glucocerebrosidase) (Homo sapiens, UniProt P04062); assay: Beta-glucocerebrosidase (GBA, glucosylceramidase) assay (4-methylumbelliferyl-beta-D-pyranoside substrate, fluorescence); format: biochemical
# T1 sequence (P04062 40-536): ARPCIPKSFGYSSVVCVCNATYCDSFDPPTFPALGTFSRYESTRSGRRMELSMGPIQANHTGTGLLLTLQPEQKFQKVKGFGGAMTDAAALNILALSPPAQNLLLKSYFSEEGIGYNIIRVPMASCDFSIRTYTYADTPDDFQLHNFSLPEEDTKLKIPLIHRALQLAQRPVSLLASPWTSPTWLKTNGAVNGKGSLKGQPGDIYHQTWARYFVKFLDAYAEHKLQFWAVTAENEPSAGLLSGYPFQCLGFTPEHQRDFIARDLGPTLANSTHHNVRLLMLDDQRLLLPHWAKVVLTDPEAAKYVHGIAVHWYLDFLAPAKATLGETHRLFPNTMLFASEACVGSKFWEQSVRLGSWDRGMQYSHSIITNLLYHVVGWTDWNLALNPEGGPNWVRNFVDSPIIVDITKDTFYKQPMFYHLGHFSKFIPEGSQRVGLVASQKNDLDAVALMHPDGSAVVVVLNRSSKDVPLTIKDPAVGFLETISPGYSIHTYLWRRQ
# Method in brief: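 IC50 by four-parameter fit of percent inhibition, with product fluorescence (365/440 nm) read after a glycine/NaOH pH 10 stop. Compound and commercial recombinant human enzyme were incubated 60 min at 37 °C before a further 60 min at 37 °C with 4-methylumbelliferyl-beta-D-pyranoside substrate.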
SMILES,IC50 [1] [µM],IC50 [2] [µM]
"O=[N+]([O-])c1cc(N2CCOCC2)ccc1NCc1ccc(CN2C[C@@H](O)[C@H](O)[C@@H](O)[C@@H]2CO)cc1 (stereo in doubt) [Compound 1069, (2S,3S,4S,5R)-2-(hydroxymethyl)-1-{[4-({[4-(morpholin-4-yl)-2-nitrophenyl]amino}methyl)phenyl]methyl}piperidine-3,4,5-triol]",0.068,3.09
"CN(Cc1ccc(CN2C[C@H](O)[C@@H](O)[C@H](O)[C@H]2CO)cc1)c1cc(-c2cccnn2)cc(C2CC2)c1 [Compound 1001, (2R,3R,4R,5S)-1-{[4-({[3-cyclopropyl-5-(pyridazin-3-yl)phenyl](methyl)amino}methyl)phenyl]methyl}-2-(hydroxymethyl)piperidine-3,4,5-triol]",0.091,99.7
"Cc1cc(CN2CCOCC2)cc(NCCCCCCN2C[C@H](O)[C@@H](O)[C@H](O)[C@H]2CO)c1 [Compound 1003, (2R,3R,4R,5S)-2-(hydroxymethyl)-1-[6-({3-methyl-5-[(morpholin-4-yl)methyl]phenyl}amino)hexyl]piperidine-3,4,5-triol]",0.299,7.68
"Cc1cc(CN2CCOCC2)cc(NCc2ccc(CN3C[C@H](O)[C@@H](O)[C@H](O)[C@H]3CO)cc2)c1 [Compound 1005, (2R,3R,4R,5S)-2-(hydroxymethyl)-1-({4-[({3-methyl-5-[(morpholin-4-yl)methyl]phenyl}amino)methyl]phenyl}methyl)piperidine-3,4,5-triol]",0.802,> 100
"OC[C@@H]1[C@@H](O)[C@H](O)[C@@H](O)CN1CCCCCCNc1cc(C2CC2)cc(N2CCOCC2)c1 [Compound 1006, (2R,3R,4R,5S)-1-(6-{[3-cyclopropyl-5-(morpholin-4-yl)phenyl]amino}hexyl)-2-(hydroxymethyl)piperidine-3,4,5-triol]",0.124,0.618
"N#Cc1cc(NCc2cccc(CN3C[C@H](O)[C@@H](O)[C@H](O)[C@H]3CO)c2)cc(-c2ccc[nH]2)c1 [Compound 1045, 3-(1H-pyrrol-2-yl)-5-{[(3-{[(2R,3R,4R,5S)-3,4,5-trihydroxy-2-(hydroxymethyl)piperidin-1-yl]methyl}phenyl)methyl]amino}benzonitrile]",1.96,60.7
"N#Cc1cc(NCc2cccc(CN3C[C@H](O)[C@@H](O)[C@H](O)[C@H]3CO)c2)cc(-c2cccnn2)c1 [Compound 1046, 3-(pyridazin-3-yl)-5-{[(3-{[(2R,3R,4R,5S)-3,4,5-trihydroxy-2-(hydroxymethyl)piperidin-1-yl]methyl}phenyl)methyl]amino}benzonitrile]",1.63,87.3
"N#Cc1cc(NCc2cccc(CN3C[C@H](O)[C@@H](O)[C@H](O)[C@H]3CO)c2)cc(-c2ncccn2)c1 [Compound 1047, 3-(pyrimidin-2-yl)-5-{[(3-{[(2R,3R,4R,5S)-3,4,5-trihydroxy-2-(hydroxymethyl)piperidin-1-yl]methyl}phenyl)methyl]amino}benzonitrile]",1.47,87.3
"Cc1cc(NCc2ccc(CN3C[C@H](O)[C@@H](O)[C@H](O)[C@H]3CO)cc2)cc(N2CCOCC2)c1 [Compound 1048, (2R,3R,4R,5S)-2-(hydroxymethyl)-1-{[4-({[3-methyl-5-(morpholin-4-yl)phenyl]amino}methyl)phenyl]methyl}piperidine-3,4,5-triol]",0.366,> 100
"Cc1cc(NCc2ccc(CN3C[C@H](O)[C@@H](O)[C@H](O)[C@H]3CO)cc2)cc(C2=COCCO2)c1 [Compound 1050, (2R,3R,4R,5S)-1-{[4-({[3-(5,6-dihydro-1,4-dioxin-2-yl)-5-methylphenyl]amino}methyl)phenyl]methyl}-2-(hydroxymethyl)piperidine-3,4,5-triol]",0.278,> 100
"Cc1cc(NCc2ccc(CN3C[C@H](O)[C@@H](O)[C@H](O)[C@H]3CO)cc2)cc(-c2ccc[nH]2)c1 [Compound 1051, (2R,3R,4R,5S)-2-(hydroxymethyl)-1-{[4-({[3-methyl-5-(1H-pyrrol-2-yl)phenyl]amino}methyl)phenyl]methyl}piperidine-3,4,5-triol]",0.291,15
"Cc1cc(NCc2ccc(CN3C[C@H](O)[C@@H](O)[C@H](O)[C@H]3CO)cc2)cc(-c2ncccn2)c1 [Compound 1053, (2R,3R,4R,5S)-2-(hydroxymethyl)-1-{[4-({[3-methyl-5-(pyrimidin-2-yl)phenyl]amino}methyl)phenyl]methyl}piperidine-3,4,5-triol]",0.118,> 100
"CS(=O)(=O)c1cc(NCc2ccc(CN3C[C@H](O)[C@@H](O)[C@H](O)[C@H]3CO)cc2)cc(N2CCOCC2)c1 [Compound 1054, (2R,3R,4R,5S)-2-(hydroxymethyl)-1-{[4-({[3-methanesulfonyl-5-(morpholin-4-yl)phenyl]amino}methyl)phenyl]methyl}piperidine-3,4,5-triol]",0.371,> 100
"CS(=O)(=O)c1cc(NCc2ccc(CN3C[C@H](O)[C@@H](O)[C@H](O)[C@H]3CO)cc2)cc(-c2ncccn2)c1 [Compound 1059, (2R,3R,4R,5S)-2-(hydroxymethyl)-1-{[4-({[3-methanesulfonyl-5-(pyrimidin-2-yl)phenyl]amino}methyl)phenyl]methyl}piperidine-3,4,5-triol]",0.074,> 100
"N#Cc1cc(NCc2ccc(CN3C[C@H](O)[C@@H](O)[C@H](O)[C@H]3CO)cc2)cc(N2CCOCC2)c1 [Compound 1060, 3-(morpholin-4-yl)-5-{[(4-{[(2R,3R,4R,5S)-3,4,5-trihydroxy-2-(hydroxymethyl)piperidin-1-yl]methyl}phenyl)methyl]amino}-benzonitrile]",0.086,> 100
"N#Cc1cc(NCc2ccc(CN3C[C@H](O)[C@@H](O)[C@H](O)[C@H]3CO)cc2)cc(C2=COCCO2)c1 [Compound 1062, 3-(5,6-dihydro-1,4-dioxin-2-yl)-5-{[(4-{[(2R,3R,4R,5S)-3,4,5-trihydroxy-2-(hydroxymethyl)piperidin-1-yl]methyl}phenyl)-methyl]amino}benzonitrile]",0.068,35.5
"N#Cc1cc(NCc2ccc(CN3C[C@H](O)[C@@H](O)[C@H](O)[C@H]3CO)cc2)cc(-c2ccc[nH]2)c1 [Compound 1063, 3-(1H-pyrrol-2-yl)-5-{[(4-{[(2R,3R,4R,5S)-3,4,5-trihydroxy-2-(hydroxymethyl)piperidin-1-yl]methyl}phenyl)methyl]amino}-benzonitrile]",0.032,> 100
"N#Cc1cc(NCc2ccc(CN3C[C@H](O)[C@@H](O)[C@H](O)[C@H]3CO)cc2)cc(-c2cccnn2)c1 [Compound 1064, 3-(pyridazin-3-yl)-5-{[(4-{[(2R,3R,4R,5S)-3,4,5-trihydroxy-2-(hydroxymethyl)piperidin-1-yl]methyl}phenyl)methyl]amino}-benzonitrile]",0.039,53.7
"N#Cc1cc(NCc2ccc(CN3C[C@H](O)[C@@H](O)[C@H](O)[C@H]3CO)cc2)cc(-c2ncccn2)c1 [Compound 1065, 3-(pyrimidin-2-yl)-5-{[(4-{[(2R,3R,4R,5S)-3,4,5-trihydroxy-2-(hydroxymethyl)piperidin-1-yl]methyl}phenyl)methyl]amino}-benzonitrile]",0.09,32.1
